Test results: ChEMBL document CHEMBL1201861, “Genomics of Drug Sensitity in Cancer screening data, Wellcome Trust Sanger Institute”

Tests used:
Test in all cases: cells
[1] = system: DSH1; type: functional, cell-based, Homo sapiens; details: Homo sapiens, DSH1;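 note: growth inhibition of human DSH1 cells, measured with a cell viability readout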
Description: SANGER: Inhibition of human DSH1 cell growth in a cell viability assay.

[2] = system: EFO-27; type: functional, cell-based, Homo sapiens; details: Homo sapiens, EFO-27;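 note: growth inhibition of EFO-27 cells, read out with a cell viability assay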
Description: SANGER: Inhibition of human EFO-27 cell growth in a cell viability assay.

[3] = system: EGI-1; type: functional, cell-based, Homo sapiens; details: Homo sapiens, EGI-1;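 note: cell viability readout used to gauge growth inhibition of EGI-1 cells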
Description: SANGER: Inhibition of human EGI-1 cell growth in a cell viability assay.

[4] = system: ES1; type: functional, cell-based, Homo sapiens; details: Homo sapiens, ES1;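 note: growth inhibition of ES1 cells, read out with a cell viability assay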
Description: SANGER: Inhibition of human ES1 cell growth in a cell viability assay.

[5] = system: EW-1; type: functional, cell-based, Homo sapiens; details: Homo sapiens, EW-1;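 note: growth inhibition of the human EW-1 cell line, read out by a cell viability assay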
Description: SANGER: Inhibition of human EW-1 cell growth in a cell viability assay.

[6] = system: EW-11; type: functional, cell-based, Homo sapiens; details: Homo sapiens, EW-11;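 note: growth inhibition of human EW-11 cells, measured with a cell viability assay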
Description: SANGER: Inhibition of human EW-11 cell growth in a cell viability assay.

[7] = system: EOL1; type: functional, cell-based; details: Homo sapiens;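 note: growth inhibition of EoL-1 cells, read out by a cell viability assay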
Description: SANGER: Inhibition of human EoL-1-cell cell growth in a cell viability assay.

[8] = system: HCC1937; type: functional, cell-based, Homo sapiens; details: Homo sapiens, HCC1937;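 note: growth inhibition measured with a cell viability read-out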
Description: SANGER: Inhibition of human HCC1937 cell growth in a cell viability assay.

[9] = system: HCC2218; type: functional, cell-based; details: Homo sapiens;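 note: cell viability assay read-out, with IC50 given as the concentration that inhibits growth of the cell line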
Description: SANGER: Inhibition of human HCC2218 cell growth in a cell viability assay.

[10] = system: HGC-27; type: functional, cell-based, Homo sapiens; details: Homo sapiens, HGC-27;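 note: growth inhibition of human HGC-27 cells, read out in a cell viability assay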
Description: SANGER: Inhibition of human HGC-27 cell growth in a cell viability assay.

[11] = system: HLE; type: functional, cell-based, Homo sapiens; details: Homo sapiens, HLE;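 note: growth inhibition of human HLE cells, read out by a cell viability assay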
Description: SANGER: Inhibition of human HLE cell growth in a cell viability assay.

[12] = system: HOP-62; type: functional, cell-based, Homo sapiens; details: Homo sapiens, HOP-62;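 note: cell growth inhibition determined with a viability assay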
Description: SANGER: Inhibition of human HOP-62 cell growth in a cell viability assay.

[13] = system: HuTu80; type: functional, cell-based, Homo sapiens, HUTU-80; details: Homo sapiens, HuTu80;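 note: growth inhibition of HuTu80 human cells, determined with a cell viability readout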
Description: SANGER: Inhibition of human HUTU-80 cell growth in a cell viability assay.

[14] = system: J82; type: functional, cell-based; details: Homo sapiens;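 note: growth inhibition of J82 cells, read out with a cell viability assay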
Description: SANGER: Inhibition of human J82 cell growth in a cell viability assay.

[15] = system: KMOE-2; type: functional, cell-based; details: Homo sapiens;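 note: growth inhibition of human KMOE-2 cells, read out with a cell viability assay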
Description: SANGER: Inhibition of human KMOE-2 cell growth in a cell viability assay.

[16] = system: KU-19-19; type: functional, cell-based, Homo sapiens; details: Homo sapiens, KU-19-19
Description: SANGER: Inhibition of human KU-19-19 cell growth in a cell viability assay.

[17] = system: KY821; type: functional, cell-based; details: Homo sapiens;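 note: growth inhibition of human KY821 cells, read out by a cell viability assay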
[18] = system: LB373-MEL-D; type: functional, cell-based, Homo sapiens; details: Homo sapiens, LB373-MEL-D;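 note: growth inhibition of the cell line, read out in a cell viability assay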
Description: SANGER: Inhibition of human LB373-MEL-D cell growth in a cell viability assay.

[19] = system: LK-2; type: functional, cell-based, Homo sapiens; details: Homo sapiens, LK-2;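 note: growth inhibition of LK-2 cells, read out with a viability assay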
Description: SANGER: Inhibition of human LK-2 cell growth in a cell viability assay.

[20] = system: LS-1034; type: functional, cell-based, Homo sapiens; details: Homo sapiens, LS-1034
Description: SANGER: Inhibition of human LS-1034 cell growth in a cell viability assay.

[21] = system: Lu-65; type: functional, cell-based; details: Homo sapiens;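 note: growth inhibition of Lu-65 cancer cells, read out by a cell viability assay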
Description: SANGER: Inhibition of human LU-65 cell growth in a cell viability assay.

[22] = system: MC-IXC; type: functional, cell-based, Homo sapiens; details: Homo sapiens, MC-IXC;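 note: growth inhibition of MC-IXC cells, read out with a cell viability assay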
Description: SANGER: Inhibition of human MC-IXC cell growth in a cell viability assay.

[23] = system: MDA-MB-415; type: functional, cell-based; details: Homo sapiens
[24] = system: MFH-ino; type: functional, cell-based; details: Homo sapiens;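 note: growth inhibition of human MFH-ino cells, read out by a cell viability assay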
Description: SANGER: Inhibition of human MFH-ino cell growth in a cell viability assay.

[25] = system: ML-2; type: functional, cell-based; details: Homo sapiens;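 note: growth inhibition of ML-2 cells, measured with a cell viability readout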
Description: SANGER: Inhibition of human ML-2 cell growth in a cell viability assay.

[26] = system: NB14; type: functional, cell-based; details: Homo sapiens;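 note: growth inhibition of NB14 cells measured with a cell viability assay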
Description: SANGER: Inhibition of human NB14 cell growth in a cell viability assay.

[27] = system: NB17; type: functional, cell-based; details: Homo sapiens;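 note: growth inhibition of NB17 cells, read out with a cell viability assay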
Description: SANGER: Inhibition of human NB17 cell growth in a cell viability assay.

[28] = system: NCI-H1395; type: functional, cell-based, Homo sapiens; details: Homo sapiens, NCI-H1395;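 note: cell viability assay read-out quantifying reduced proliferation of human NCI-H1395 cells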
Description: SANGER: Inhibition of human NCI-H1395 cell growth in a cell viability assay.

[29] = system: NCI-H1770; type: functional, cell-based; details: Homo sapiens;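 note: growth inhibition of NCI-H1770 cells determined with a viability readout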
Description: SANGER: Inhibition of human NCI-H1770 cell growth in a cell viability assay.

[30] = system: NCI-H1993; type: functional, cell-based, Homo sapiens; details: Homo sapiens, NCI-H1993;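 note: growth inhibition of the cancer cell line, assessed with a cell viability assay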
Description: SANGER: Inhibition of human NCI-H1993 cell growth in a cell viability assay.

[31] = system: NCI-H446; type: functional, cell-based; details: Homo sapiens;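 note: growth inhibition of NCI-H446 cells determined by a cell viability assay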
Description: SANGER: Inhibition of human NCI-H446 cell growth in a cell viability assay.

[32] = system: NCI-H661; type: functional, cell-based, Homo sapiens; details: Homo sapiens, NCI-H661;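 note: cell viability assay read-out, IC50 being the concentration that inhibits growth of the cells by half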
Description: SANGER: Inhibition of human NCI-H661 cell growth in a cell viability assay.

[33] = system: SNU1; type: functional, cell-based; details: Homo sapiens;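 note: growth inhibition of human NCI-SNU-1 cells, measured with a cell viability assay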
Description: SANGER: Inhibition of human NCI-SNU-1 cell growth in a cell viability assay.

[34] = system: NEC8; type: functional, cell-based, Homo sapiens; details: Homo sapiens, NEC8;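 note: growth inhibition of human NEC8 cells, read out by a cell viability assay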
Description: SANGER: Inhibition of human NEC8 cell growth in a cell viability assay.

[35] = system: OVCAR-8; type: functional, cell-based, Homo sapiens; details: Homo sapiens, OVCAR-8;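 note: growth inhibition of human OVCAR-8 cells, read out by a cell viability assay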
Description: SANGER: Inhibition of human OVCAR-8 cell growth in a cell viability assay.

[36] = system: P12-Ichikawa; type: functional, cell-based; details: Homo sapiens
[37] = system: PA-1; type: functional, cell-based, Homo sapiens; details: Homo sapiens, PA-1;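 note: IC50 for suppression of PA-1 cell proliferation, determined with a cell viability read-out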
Description: SANGER: Inhibition of human PA-1 cell growth in a cell viability assay.

[38] = system: PC-14; type: functional, cell-based, Homo sapiens; details: Homo sapiens, PC-14;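 note: cell viability assay measuring inhibition of PC-14 cell growth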
Description: SANGER: Inhibition of human PC-14 cell growth in a cell viability assay.

[39] = system: PSN1; type: functional, cell-based, Homo sapiens; details: Homo sapiens, PSN1;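 note: suppression of growth of human PSN1 cells, read out by a cell viability assay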
Description: SANGER: Inhibition of human PSN1 cell growth in a cell viability assay.

[40] = system: RMG-I; type: functional, cell-based, Homo sapiens; details: Homo sapiens, RMG-I;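 note: growth inhibition of human RMG-I cells, read out with a cell viability assay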
Description: SANGER: Inhibition of human RMG-I cell growth in a cell viability assay.

[41] = system: SAS; type: functional, cell-based, Homo sapiens; details: Homo sapiens, SAS;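 note: growth inhibition of SAS cells, read out with a cell viability assay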
Description: SANGER: Inhibition of human SAS cell growth in a cell viability assay.

[42] = system: SK-MEL-1; type: functional, cell-based; details: Homo sapiens;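 note: growth inhibition of human SK-MEL-1 cells, read out by a cell viability assay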
Description: SANGER: Inhibition of human SK-MEL-1 cell growth in a cell viability assay.

[43] = system: SW1463; type: functional, cell-based, Homo sapiens; details: Homo sapiens, SW1463;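 note: growth inhibition of SW1463 cells, determined with a cell viability assay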
Description: SANGER: Inhibition of human SW1463 cell growth in a cell viability assay.

[44] = system: SW 962; type: functional, cell-based, Homo sapiens; details: Homo sapiens, SW 962;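 note: growth inhibition of human SW962 cells, read out by a cell viability assay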
Description: SANGER: Inhibition of human SW962 cell growth in a cell viability assay.

[45] = system: SiHa; type: functional, cell-based, Homo sapiens; details: Homo sapiens, SiHa;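 note: Viability-based readout of growth inhibition in SiHa cells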
Description: SANGER: Inhibition of human SiHa cell growth in a cell viability assay.

[46] = system: 5637; type: functional, cell-based, Homo sapiens; details: Homo sapiens
Description: SANGER: Inhibition of human 5637 cell growth in a cell viability assay.

[47] = system: 786-0; type: functional, cell-based, Homo sapiens; details: Homo sapiens
Description: SANGER: Inhibition of human 786-0 cell growth in a cell viability assay.

[48] = system: A-427; type: functional, cell-based, Homo sapiens; details: Homo sapiens, A-427;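 note: growth inhibition of human A-427 cells, read out by a cell viability assay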
Description: SANGER: Inhibition of human A427 cell growth in a cell viability assay.

[49] = system: CAKI-1; type: functional, cell-based, Homo sapiens; details: Homo sapiens, CAKI-1;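 note: growth inhibition of CAKI-1 cells, measured by a cell viability assay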
Description: SANGER: Inhibition of human CAKI-1 cell growth in a cell viability assay.

[50] = system: TE-9; type: functional, cell-based, Homo sapiens; details: Homo sapiens, TE-9;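 note: cell growth inhibition, measured with a cell viability readout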
Description: SANGER: Inhibition of human TE-9 cell growth in a cell viability assay.

[51] = system: TGBC24TKB; type: functional, cell-based, Homo sapiens; details: Homo sapiens, TGBC24TKB;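 note: growth inhibition of human TGBC24TKB cells, read out with a cell viability assay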
Description: SANGER: Inhibition of human TGBC24TKB cell growth in a cell viability assay.

[52] = system: CGTH-W-1; type: functional, cell-based, Homo sapiens; details: Homo sapiens, CGTH-W-1;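 note: growth inhibition of human CGTH-W-1 cells measured by cell viability assay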
Description: SANGER: Inhibition of human CGTH-W-1 cell growth in a cell viability assay.

[53] = system: CHL-1; type: functional, cell-based, Homo sapiens; details: Homo sapiens, CHL-1;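 note: cell growth inhibition, read out with a cell viability assay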
Description: SANGER: Inhibition of human CHL-1 cell growth in a cell viability assay.

[54] = system: COLO-320-HSR; type: functional, cell-based; details: Homo sapiens;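 note: growth inhibition of COLO-320-HSR cells, determined with a cell viability assay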
Description: SANGER: Inhibition of human COLO-320-HSR cell growth in a cell viability assay.

CN(C)C/C=C/C(=O)Nc1cc2c(Nc3ccc(F)c(Cl)c3)ncnc2cc1O[C@H]1CCOC1 [AFATINIB]
IC50 [1]: 33.1 nM
IC50 [2]: 51.8 nM
IC50 [3]: > 500 nM
IC50 [4]: > 500 nM
IC50 [5]: > 500 nM
IC50 [6]: > 500 nM
IC50 [7]: 269 nM
IC50 [8]: > 500 nM
IC50 [9]: 9.87 nM
IC50 [10]: > 500 nM
IC50 [11]: 350 nM
IC50 [12]: > 500 nM
IC50 [13]: > 500 nM
IC50 [14]: > 500 nM
IC50 [15]: > 500 nM
IC50 [16]: > 500 nM
IC50 [17]: 20.6 nM
IC50 [18]: > 500 nM
IC50 [19]: > 500 nM
IC50 [20]: > 500 nM
IC50 [21]: 126 nM
IC50 [22]: > 500 nM
IC50 [23]: > 500 nM
IC50 [24]: > 500 nM
IC50 [25]: 248 nM
IC50 [26]: > 500 nM
IC50 [27]: > 500 nM
IC50 [28]: > 500 nM
IC50 [29]: 103 nM
IC50 [30]: > 500 nM
IC50 [31]: > 500 nM
IC50 [32]: > 500 nM
IC50 [33]: > 500 nM
IC50 [34]: > 500 nM
IC50 [35]: > 500 nM
IC50 [36]: > 500 nM
IC50 [37]: > 500 nM
IC50 [38]: 56.7 nM
IC50 [39]: > 500 nM
IC50 [40]: > 500 nM
IC50 [41]: 484 nM
IC50 [42]: > 500 nM
IC50 [43]: > 500 nM
IC50 [44]: > 500 nM
IC50 [45]: > 500 nM
IC50 [46]: > 500 nM
IC50 [47]: > 500 nM
IC50 [48]: > 500 nM
IC50 [49]: > 500 nM
IC50 [50]: > 500 nM
IC50 [51]: > 500 nM
IC50 [52]: > 500 nM
IC50 [53]: 18.4 nM
IC50 [54]: > 500 nM

O=C(NOCC1CC1)c1ccc(F)c(F)c1Nc1ccc(I)cc1Cl [CI-1040]
IC50 [1]: > 10000 nM
IC50 [2]: 4790 nM
IC50 [3]: 3610 nM
IC50 [4]: > 10000 nM
IC50 [5]: > 10000 nM
IC50 [6]: > 10000 nM
IC50 [7]: 41.5 nM
IC50 [8]: 9290 nM
IC50 [9]: 2650 nM
IC50 [10]: > 10000 nM
IC50 [11]: > 10000 nM
IC50 [12]: > 10000 nM
IC50 [13]: > 10000 nM
IC50 [14]: > 10000 nM
IC50 [15]: 198 nM
IC50 [16]: 3170 nM
IC50 [17]: 379 nM
IC50 [18]: > 10000 nM
IC50 [19]: > 10000 nM
IC50 [20]: > 10000 nM
IC50 [21]: > 10000 nM
IC50 [22]: > 10000 nM
IC50 [23]: > 10000 nM
IC50 [24]: > 10000 nM
IC50 [25]: 1530 nM
IC50 [26]: 7670 nM
IC50 [27]: > 10000 nM
IC50 [28]: > 10000 nM
IC50 [29]: > 10000 nM
IC50 [30]: > 10000 nM
IC50 [31]: > 10000 nM
IC50 [32]: > 10000 nM
IC50 [33]: 754 nM
IC50 [34]: > 10000 nM
IC50 [35]: > 10000 nM
IC50 [36]: 612 nM
IC50 [37]: 5640 nM
IC50 [38]: > 10000 nM
IC50 [39]: 962 nM
IC50 [40]: > 10000 nM
IC50 [41]: > 10000 nM
IC50 [42]: 1230 nM
IC50 [43]: 1340 nM
IC50 [44]: > 10000 nM
IC50 [45]: > 10000 nM
IC50 [46]: > 10000 nM
IC50 [47]: 3270 nM
IC50 [48]: 3600 nM
IC50 [49]: 8570 nM
IC50 [50]: > 10000 nM
IC50 [51]: > 10000 nM
IC50 [52]: 3860 nM
IC50 [53]: 2810 nM
IC50 [54]: > 10000 nM

Nc1ccn([C@@H]2O[C@H](CO)[C@@H](O)[C@@H]2O)c(=O)n1 [CYTARABINE]
IC50 [1]: > 2000 nM
IC50 [2]: 1940 nM
IC50 [3]: 1110 nM
IC50 [4]: 13 nM
IC50 [5]: 139 nM
IC50 [7]: 803 nM
IC50 [8]: > 2000 nM
IC50 [9]: > 2000 nM
IC50 [10]: 455 nM
IC50 [11]: 1590 nM
IC50 [12]: > 2000 nM
IC50 [13]: 561 nM
IC50 [14]: 1620 nM
IC50 [15]: 944 nM
IC50 [16]: > 2000 nM
IC50 [17]: > 2000 nM
IC50 [18]: > 2000 nM
IC50 [19]: 461 nM
IC50 [20]: > 2000 nM
IC50 [21]: > 2000 nM
IC50 [22]: 41.4 nM
IC50 [23]: > 2000 nM
IC50 [24]: > 2000 nM
IC50 [25]: 270 nM
IC50 [26]: 310 nM
IC50 [27]: > 2000 nM
IC50 [28]: > 2000 nM
IC50 [29]: > 2000 nM
IC50 [30]: > 2000 nM
IC50 [31]: > 2000 nM
IC50 [32]: 1730 nM
IC50 [33]: 96.8 nM
IC50 [34]: 134 nM
IC50 [35]: 211 nM
IC50 [36]: 5.54 nM
IC50 [37]: 187 nM
IC50 [38]: 610 nM
IC50 [39]: 193 nM
IC50 [40]: > 2000 nM
IC50 [41]: 108 nM
IC50 [42]: > 2000 nM
IC50 [43]: > 2000 nM
IC50 [44]: > 2000 nM
IC50 [45]: 856 nM
IC50 [46]: 501 nM
IC50 [47]: 669 nM
IC50 [48]: 34.5 nM
IC50 [49]: 120 nM
IC50 [50]: 1790 nM
IC50 [51]: 1850 nM
IC50 [52]: 182 nM
IC50 [53]: 1040 nM
IC50 [54]: > 2000 nM

CC(=O)O[C@@]12CO[C@@H]1C[C@H](O)[C@@]1(C)C(=O)[C@H](O)C3=C(C)[C@@H](OC(=O)[C@H](O)[C@@H](NC(=O)OC(C)(C)C)c4ccccc4)C[C@@](O)([C@@H](OC(=O)c4ccccc4)[C@H]21)C3(C)C [DOCETAXEL]
IC50 [1]: > 10 nM
IC50 [2]: 1.02 nM
IC50 [3]: 3.62 nM
IC50 [4]: 0.77 nM
IC50 [5]: 2.98 nM
IC50 [6]: 1.69 nM
IC50 [7]: 1.73 nM
IC50 [8]: > 10 nM
IC50 [9]: > 10 nM
IC50 [10]: 0.471 nM
IC50 [11]: 4.05 nM
IC50 [12]: > 10 nM
IC50 [14]: > 10 nM
IC50 [15]: > 10 nM
IC50 [16]: > 10 nM
IC50 [17]: 5.51 nM
IC50 [18]: > 10 nM
IC50 [19]: 1.21 nM
IC50 [20]: > 10 nM
IC50 [21]: > 10 nM
IC50 [22]: 0.479 nM
IC50 [23]: 2.74 nM
IC50 [24]: > 10 nM
IC50 [25]: > 10 nM
IC50 [26]: 0.26 nM
IC50 [27]: 1.89 nM
IC50 [28]: 3.96 nM
IC50 [29]: 3.42 nM
IC50 [30]: > 10 nM
IC50 [31]: 2.43 nM
IC50 [32]: > 10 nM
IC50 [33]: 1.97 nM
IC50 [34]: 0.561 nM
IC50 [35]: 2.12 nM
IC50 [36]: 0.745 nM
IC50 [37]: 0.687 nM
IC50 [38]: 2.09 nM
IC50 [39]: 0.581 nM
IC50 [40]: > 10 nM
IC50 [41]: 1.34 nM
IC50 [42]: > 10 nM
IC50 [43]: > 10 nM
IC50 [44]: 2.93 nM
IC50 [45]: 4.3 nM
IC50 [46]: 0.143 nM
IC50 [47]: 7.86 nM
IC50 [48]: 1.48 nM
IC50 [49]: > 10 nM
IC50 [50]: 0.676 nM
IC50 [51]: 7.81 nM
IC50 [52]: 0.542 nM
IC50 [53]: 0.958 nM
IC50 [54]: > 10 nM
